Assay results as given in ChEMBL document CHEMBL5465560, “Selectivity Literature for EUbOPEN Chemogenomic Library” (2024).

Legend:
[1] = target: Cyclin-dependent kinase-like 1 (Homo sapiens) (UniProt Q00532); assay: Selectivity interaction (KinomeScan (DiscoverX)) EUB0001049a CDKL1; settings: at 1 µM
[2] = target: T1, Activin receptor type-1B (Homo sapiens) (UniProt P36896); assay: Selectivity interaction (KinomeScan (DiscoverX)) EUB0000666a ACVR1B; settings: at 10 µM
T1 sequence (whole entry): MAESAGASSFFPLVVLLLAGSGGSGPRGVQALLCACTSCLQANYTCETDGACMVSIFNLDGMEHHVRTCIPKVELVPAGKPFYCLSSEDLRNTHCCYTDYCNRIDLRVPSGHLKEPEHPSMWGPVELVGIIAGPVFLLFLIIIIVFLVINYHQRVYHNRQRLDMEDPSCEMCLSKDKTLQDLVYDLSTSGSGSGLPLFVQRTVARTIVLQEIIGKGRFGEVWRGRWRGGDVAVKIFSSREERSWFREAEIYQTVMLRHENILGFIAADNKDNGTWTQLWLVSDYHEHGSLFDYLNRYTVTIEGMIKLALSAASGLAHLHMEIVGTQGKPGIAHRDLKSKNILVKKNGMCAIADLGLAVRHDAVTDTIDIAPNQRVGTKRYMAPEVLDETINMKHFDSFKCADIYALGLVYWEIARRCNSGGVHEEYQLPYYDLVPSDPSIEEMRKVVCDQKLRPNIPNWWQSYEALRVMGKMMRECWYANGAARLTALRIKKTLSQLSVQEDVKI

[3] = target: 5'-AMP-activated protein kinase catalytic subunit alpha-1 (Homo sapiens, UniProt Q13131); assay: Selectivity interaction (KinomeScan (DiscoverX)) EUB0000666a PRKAA1; settings: at 10 µM
[4] = target: Serine/threonine-protein kinase pim-3 (Homo sapiens) (UniProt Q86V86); settings: at 10 µM
[5] = target: Serine/threonine-protein kinase 32C (Homo sapiens) (UniProt Q86UX6); settings: at 10 µM
[6] = target: T2, Eukaryotic elongation factor 2 kinase (Homo sapiens) (UniProt O00418); assay: Selectivity interaction (ActivX KiNativ screen (kinase selectivity in THP-1 cell lysates)) EUB0000639a EEF2K; assay type: subcellular; settings: lysate
T2 sequence (whole entry): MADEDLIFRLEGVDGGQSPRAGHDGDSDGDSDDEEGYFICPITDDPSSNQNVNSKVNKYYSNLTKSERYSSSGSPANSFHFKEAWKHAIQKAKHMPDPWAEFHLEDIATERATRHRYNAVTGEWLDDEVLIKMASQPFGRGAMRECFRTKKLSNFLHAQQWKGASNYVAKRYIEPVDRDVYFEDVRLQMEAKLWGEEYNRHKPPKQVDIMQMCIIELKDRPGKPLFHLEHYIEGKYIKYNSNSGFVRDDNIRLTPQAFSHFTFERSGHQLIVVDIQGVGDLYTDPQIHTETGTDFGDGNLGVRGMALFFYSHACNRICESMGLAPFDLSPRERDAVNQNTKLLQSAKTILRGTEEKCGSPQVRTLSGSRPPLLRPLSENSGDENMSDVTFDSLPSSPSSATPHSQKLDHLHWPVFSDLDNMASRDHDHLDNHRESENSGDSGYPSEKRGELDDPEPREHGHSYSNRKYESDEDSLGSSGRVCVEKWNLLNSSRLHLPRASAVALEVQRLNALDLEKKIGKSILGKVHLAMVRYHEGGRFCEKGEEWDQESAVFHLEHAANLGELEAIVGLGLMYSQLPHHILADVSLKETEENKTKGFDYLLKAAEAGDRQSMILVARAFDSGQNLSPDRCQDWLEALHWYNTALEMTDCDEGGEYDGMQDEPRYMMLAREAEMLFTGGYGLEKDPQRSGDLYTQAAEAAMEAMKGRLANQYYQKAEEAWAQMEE

[7] = target: Casein kinase II subunit alpha' (Homo sapiens) (UniProt P19784); assay: Selectivity interaction (Ambit KINOMEscan and KiNATiv profiling in Jurkat cells) EUB0000090b CSNK2A2; assay type: cell-based; settings: at 1 µM
[8] = target: MAP/microtubule affinity-regulating kinase 3 (Homo sapiens) (UniProt P27448); assay: Selectivity interaction (ActivX KiNativ screen (ex vivo kinase selectivity in human PBMCs)) EUB0001619a MARK3; assay type: cell-based; settings: PBMC, at 1 µM
[9] = target: T3, Myotonin-protein kinase (Homo sapiens) (UniProt Q09013); assay: Selectivity interaction (KinomeScan (DiscoverX)) EUB0000655a DMPK; settings: at 10 µM
T3 sequence (whole entry): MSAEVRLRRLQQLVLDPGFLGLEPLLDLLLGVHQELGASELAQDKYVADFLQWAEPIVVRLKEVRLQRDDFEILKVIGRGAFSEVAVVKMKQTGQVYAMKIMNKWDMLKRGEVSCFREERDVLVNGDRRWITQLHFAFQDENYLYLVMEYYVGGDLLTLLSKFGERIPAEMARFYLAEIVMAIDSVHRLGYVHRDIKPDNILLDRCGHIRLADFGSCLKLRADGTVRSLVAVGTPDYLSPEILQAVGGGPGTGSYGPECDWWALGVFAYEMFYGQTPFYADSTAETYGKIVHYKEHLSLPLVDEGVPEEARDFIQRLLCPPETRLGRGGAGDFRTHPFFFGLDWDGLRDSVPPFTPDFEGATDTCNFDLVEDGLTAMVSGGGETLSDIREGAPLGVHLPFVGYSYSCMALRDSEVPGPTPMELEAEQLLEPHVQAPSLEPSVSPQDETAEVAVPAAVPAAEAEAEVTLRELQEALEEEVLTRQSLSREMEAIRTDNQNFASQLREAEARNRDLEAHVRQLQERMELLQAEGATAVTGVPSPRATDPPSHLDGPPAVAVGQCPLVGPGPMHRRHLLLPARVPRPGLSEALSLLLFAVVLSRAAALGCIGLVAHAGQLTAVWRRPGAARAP

[10] = target: T4, Histone-lysine N-methyltransferase SUV39H1 (Homo sapiens) (UniProt O43463); assay: Selectivity interaction (Methyltransferase screen (radiometric assays, panel of 8 PRMTs, 21 protein lysine methyltransferases, 3 DNA methyltransferases, and one RNA methyltransferase)) EUB0000271b SUV39H1
T4 sequence (whole entry): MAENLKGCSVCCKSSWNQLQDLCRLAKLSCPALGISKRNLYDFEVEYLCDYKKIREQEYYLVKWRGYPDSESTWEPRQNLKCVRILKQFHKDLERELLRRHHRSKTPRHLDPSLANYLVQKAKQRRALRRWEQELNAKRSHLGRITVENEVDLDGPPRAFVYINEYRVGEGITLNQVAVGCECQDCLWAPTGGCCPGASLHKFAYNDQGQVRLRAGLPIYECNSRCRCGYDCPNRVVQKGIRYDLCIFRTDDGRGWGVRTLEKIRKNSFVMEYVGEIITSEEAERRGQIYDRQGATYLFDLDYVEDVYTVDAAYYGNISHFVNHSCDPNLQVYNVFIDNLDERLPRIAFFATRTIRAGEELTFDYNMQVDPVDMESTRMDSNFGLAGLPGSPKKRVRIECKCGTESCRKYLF

Chain of MAP/microtubule affinity-regulating kinase 3 (Homo sapiens) (P27448 whole entry, looked up): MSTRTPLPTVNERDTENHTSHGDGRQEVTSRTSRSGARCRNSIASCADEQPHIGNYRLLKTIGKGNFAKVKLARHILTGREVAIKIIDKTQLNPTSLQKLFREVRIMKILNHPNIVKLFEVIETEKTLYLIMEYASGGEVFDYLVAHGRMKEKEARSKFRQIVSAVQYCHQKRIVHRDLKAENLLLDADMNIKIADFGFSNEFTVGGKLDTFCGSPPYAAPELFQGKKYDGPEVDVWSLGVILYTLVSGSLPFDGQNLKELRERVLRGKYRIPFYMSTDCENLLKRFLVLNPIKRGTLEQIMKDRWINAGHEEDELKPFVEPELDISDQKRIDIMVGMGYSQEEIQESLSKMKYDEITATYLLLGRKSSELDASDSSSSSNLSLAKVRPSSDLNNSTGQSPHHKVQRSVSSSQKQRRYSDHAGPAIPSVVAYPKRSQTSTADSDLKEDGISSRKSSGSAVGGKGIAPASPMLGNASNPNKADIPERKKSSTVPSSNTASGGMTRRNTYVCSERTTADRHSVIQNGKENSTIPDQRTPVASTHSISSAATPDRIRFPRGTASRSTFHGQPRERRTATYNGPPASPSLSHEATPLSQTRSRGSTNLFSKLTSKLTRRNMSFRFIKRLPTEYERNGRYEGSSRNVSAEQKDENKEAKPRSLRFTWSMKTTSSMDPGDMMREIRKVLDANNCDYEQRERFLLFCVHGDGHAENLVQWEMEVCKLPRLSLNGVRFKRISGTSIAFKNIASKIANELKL
Chain of Casein kinase II subunit alpha' (Homo sapiens) (P19784 whole entry, looked up): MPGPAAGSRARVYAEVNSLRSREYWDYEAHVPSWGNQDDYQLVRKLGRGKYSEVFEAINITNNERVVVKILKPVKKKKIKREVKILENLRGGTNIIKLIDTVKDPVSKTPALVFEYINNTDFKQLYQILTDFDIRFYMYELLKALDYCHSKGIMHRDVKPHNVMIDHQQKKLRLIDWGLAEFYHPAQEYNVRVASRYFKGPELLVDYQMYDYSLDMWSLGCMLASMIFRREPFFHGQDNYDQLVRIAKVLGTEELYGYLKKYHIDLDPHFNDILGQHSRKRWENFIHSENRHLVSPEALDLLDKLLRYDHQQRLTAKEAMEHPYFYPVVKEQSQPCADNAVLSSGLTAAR
Chain of Cyclin-dependent kinase-like 1 (Homo sapiens) (Q00532 whole entry): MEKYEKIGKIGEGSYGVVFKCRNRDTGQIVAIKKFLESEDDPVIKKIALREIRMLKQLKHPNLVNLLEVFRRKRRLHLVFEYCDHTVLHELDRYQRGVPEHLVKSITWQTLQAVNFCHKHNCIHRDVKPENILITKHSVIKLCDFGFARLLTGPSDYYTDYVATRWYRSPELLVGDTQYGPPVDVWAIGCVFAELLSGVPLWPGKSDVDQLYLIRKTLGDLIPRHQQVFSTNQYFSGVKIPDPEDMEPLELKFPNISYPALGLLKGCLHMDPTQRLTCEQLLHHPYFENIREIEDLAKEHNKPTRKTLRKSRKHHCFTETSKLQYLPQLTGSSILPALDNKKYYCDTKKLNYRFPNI
Chain of 5'-AMP-activated protein kinase catalytic subunit alpha-1 (Q13131 whole entry, looked up): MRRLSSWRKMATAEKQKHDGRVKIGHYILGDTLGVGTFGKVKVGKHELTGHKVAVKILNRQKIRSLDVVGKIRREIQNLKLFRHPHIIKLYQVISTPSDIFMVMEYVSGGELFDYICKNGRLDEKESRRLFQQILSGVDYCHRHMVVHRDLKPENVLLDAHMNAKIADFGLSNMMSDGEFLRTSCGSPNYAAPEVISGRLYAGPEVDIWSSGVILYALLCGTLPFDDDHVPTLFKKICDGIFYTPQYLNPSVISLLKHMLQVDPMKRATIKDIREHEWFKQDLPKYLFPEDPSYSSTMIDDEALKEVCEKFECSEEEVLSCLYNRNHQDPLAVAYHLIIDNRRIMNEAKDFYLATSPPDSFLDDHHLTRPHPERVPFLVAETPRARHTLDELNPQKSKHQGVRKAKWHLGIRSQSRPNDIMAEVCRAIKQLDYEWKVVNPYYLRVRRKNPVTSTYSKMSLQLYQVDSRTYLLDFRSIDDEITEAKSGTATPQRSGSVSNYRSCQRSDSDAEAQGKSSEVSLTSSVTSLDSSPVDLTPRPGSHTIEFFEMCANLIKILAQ
Chain of Serine/threonine-protein kinase 32C (Homo sapiens) (Q86UX6 whole entry): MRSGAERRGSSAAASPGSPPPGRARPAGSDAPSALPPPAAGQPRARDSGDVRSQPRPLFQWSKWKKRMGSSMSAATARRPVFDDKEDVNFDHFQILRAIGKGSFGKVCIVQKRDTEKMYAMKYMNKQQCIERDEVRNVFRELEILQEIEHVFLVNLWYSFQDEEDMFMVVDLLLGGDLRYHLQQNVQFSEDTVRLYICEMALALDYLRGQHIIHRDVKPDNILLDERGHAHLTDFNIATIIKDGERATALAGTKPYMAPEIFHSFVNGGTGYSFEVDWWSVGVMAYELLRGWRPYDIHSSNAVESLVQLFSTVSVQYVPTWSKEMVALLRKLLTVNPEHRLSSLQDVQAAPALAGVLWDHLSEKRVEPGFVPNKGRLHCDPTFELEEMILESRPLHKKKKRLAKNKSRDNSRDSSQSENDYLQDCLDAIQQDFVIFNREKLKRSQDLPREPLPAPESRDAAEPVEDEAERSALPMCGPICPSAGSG

Work on `COc1cc(Nc2nc(C)cc(-c3cnn4nc(OC)ccc34)n2)cc(C(F)(F)F)c1` yielded a % of control [1] of 73%.

For `O=C(NOC[C@H](O)CO)c1ccc(F)c(F)c1Nc1ccc(I)cc1F`, the % of control [2] was 100% and the % of control [3] was 100%.

`CCN(CC)CCCCNc1ncc2cc(-c3cc(OC)cc(OC)c3)c(NC(=O)NC(C)(C)C)nc2n1` showed a % of control [4] of 100% and a % of control [5] of 100%.

`CC[C@@H]1[C@H](F)C(=O)N[C@@H]1COc1nccc2cc(C(N)=O)c(OC)cc12` [ZIMLOVISERTIB] was tested, and the % of inhibition ([6]; at 0.01 µM) was 4.3%, the % of inhibition ([6]; at 0.04 µM) was -14.7% and the % of inhibition ([6]; at 0.2 µM) was 2.9%. For the same molecule, the % of inhibition ([6]; at 1 µM) was -15.8% and the % of inhibition ([6]; at 5 µM) was -3.6%.

Work on `CN(C)C/C=C/C(=O)Nc1ccc(C(=O)N2CCCC(Nc3ncc(Cl)c(-c4c[nH]c5ccccc45)n3)C2)cc1` (stereo not given) yielded a % of control [7] of 89%.

`N#Cc1cccc(-c2c[nH]c3ncnc(N4CCOCC4)c23)c1` showed a % of inhibition [8] of 24%.

Molecule `CN(C)CCOc1ccc(-c2nc(-c3ccncc3)c(-c3ccc4c(c3)CC/C4=N\O)[nH]2)cc1` has a % of control [9] of 100%.

`Cc1cc(C)cc([C@@H]2c3cc(C)ccc3NC(=O)CN2C(=O)c2ccc(Br)s2)c1` was tested, and the % of activity ([10]; at 1 µM) was 96.7% and the % of activity ([10]; at 10 µM) was 91.3%.
